Laboratory results published in PubChem BioAssay (NCI).
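Each compound was tested at five concentrations against cells in 96-well plates for 48 hours. At the TGI there is no net growth.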

How the values were obtained:
Experiment in all cases: growth of human tumour cells (NCI), 48 h
[1] = test system: KM12 colon
[2] = test system: ACHN renal
[3] = test system: NCI-H460 lung
[4] = test system: OVCAR-3 ovarian
[5] = test system: SR leukemia
[6] = test system: OVCAR-4 ovarian
[7] = test system: SK-OV-3 ovarian
[8] = test system: OVCAR-5 ovarian
[9] = test system: HCC-2998 colon
[10] = test system: COLO 205 colon
[11] = test system: SK-MEL-28 melanoma
[12] = test system: OVCAR-8 ovarian
[13] = test system: SK-MEL-5 melanoma
[14] = test system: SF-539 CNS
[15] = test system: TK-10 renal
[16] = test system: HOP-62 NSCLC
[17] = test system: NCI-H23 lung
[18] = test system: SF-295 CNS
[19] = test system: HL-60(TB) leukemia
[20] = test system: MDA-MB-435
[21] = test system: M14 melanoma
[22] = test system: SW-620 colon
[23] = test system: HT29 colon
[24] = test system: EKVX NSCLC
[25] = test system: NCI-H226 lung
[26] = test system: HS 578T breast
[27] = test system: CCRF-CEM leukemia
[28] = test system: UACC-62 melanoma
[29] = test system: LOX IMVI melanoma
[30] = test system: SK-MEL-2 melanoma
[31] = test system: BT-549 breast
[32] = test system: NCI/ADR-RES ovarian
[33] = test system: T-47D breast
[34] = test system: PC-3 prostate
[35] = test system: HCT-15 colon
[36] = test system: MDA-N
[37] = test system: MOLT-4 leukemia
[38] = test system: RPMI-8226 leukemia
[39] = test system: IGROV1 ovarian
[40] = test system: UO-31 renal
[41] = test system: MCF7 breast
[42] = test system: SNB-19 CNS
[43] = test system: SF-268 CNS
[44] = test system: UACC-257 melanoma
[45] = test system: MDA-MB-231 breast
[46] = test system: MALME-3M melanoma
[47] = test system: U251 CNS
[48] = test system: 786-0 renal
[49] = test system: HCT-116 colon
[50] = test system: DU-145 prostate
[51] = test system: SN12C renal
[52] = test system: NCI-H522 lung
[53] = test system: A549 NSCLC
[54] = test system: SNB-75 CNS
[55] = test system: RXF 393 renal
[56] = test system: HOP-92 NSCLC
[57] = test system: CAKI-1 renal
[58] = test system: K-562 leukemia
[59] = test system: A498 renal

## COc1ccc(-n2sc3ncc([N+](=O)[O-])cc3c2=O)cc1
[1]
  TGI: > 100 µM
[2]
  TGI: > 100 µM
[3]
  TGI: > 100 µM
[4]
  TGI: > 100 µM
[5]
  TGI: > 100 µM
[6]
  TGI: > 100 µM
[7]
  TGI: > 100 µM
[8]
  TGI: > 100 µM
[9]
  TGI: > 100 µM
[10]
  TGI: > 100 µM
[11]
  TGI: > 100 µM
[12]
  TGI: > 100 µM
[13]
  TGI: > 100 µM
[14]
  TGI: > 100 µM
[15]
  TGI: > 100 µM
[16]
  TGI: > 100 µM
[17]
  TGI: > 100 µM
[18]
  TGI: > 100 µM
[19]
  TGI: > 100 µM
[20]
  TGI: > 100 µM
[21]
  TGI: > 100 µM
[22]
  TGI: > 100 µM
[23]
  TGI: > 100 µM
[24]
  TGI: > 100 µM
[25]
  TGI: > 100 µM
[26]
  TGI: > 100 µM
[27]
  TGI: > 100 µM
[28]
  TGI: > 100 µM
[29]
  TGI: > 100 µM
[30]
  TGI: > 100 µM
[31]
  TGI: > 100 µM
[32]
  TGI: > 100 µM
[33]
  TGI: > 100 µM
[34]
  TGI: > 100 µM
[35]
  TGI: > 100 µM
[36]
  TGI: > 100 µM
[37]
  TGI: > 100 µM
[38]
  TGI: > 100 µM
[39]
  TGI: > 100 µM
[40]
  TGI: > 100 µM
[41]
  TGI: > 100 µM
[42]
  TGI: > 100 µM
[43]
  TGI: > 100 µM
[44]
  TGI: > 100 µM
[45]
  TGI: > 100 µM
[46]
  TGI: > 100 µM
[47]
  TGI: > 100 µM
[48]
  TGI: > 100 µM
[49]
  TGI: > 100 µM
[50]
  TGI: > 100 µM
[51]
  TGI: > 100 µM
[52]
  TGI: > 100 µM
[53]
  TGI: > 100 µM
[54]
  TGI: > 100 µM

## COc1cc2c(cc1OC)-c1cc3ccc(OC)c(OC)c3c[n+]1CC2
[1]
  TGI: > 100 µM
[2]
  TGI: > 100 µM
[3]
  TGI: > 100 µM
[4]
  TGI: > 100 µM
[5]
  TGI: > 100 µM
[6]
  TGI: > 100 µM
[7]
  TGI: > 100 µM
[8]
  TGI: > 100 µM
[9]
  TGI: > 100 µM
[10]
  TGI: > 100 µM
[11]
  TGI: > 100 µM
[12]
  TGI: > 100 µM
[13]
  TGI: > 100 µM
[14]
  TGI: > 100 µM
[15]
  TGI: > 100 µM
[16]
  TGI: > 100 µM
[55]
  TGI: > 100 µM
[18]
  TGI: > 100 µM
[19]
  TGI: > 100 µM
[20]
  TGI: > 100 µM
[21]
  TGI: > 100 µM
[22]
  TGI: > 100 µM
[23]
  TGI: > 100 µM
[24]
  TGI: > 100 µM
[25]
  TGI: > 100 µM
[26]
  TGI: > 100 µM
[56]
  TGI: > 100 µM
[27]
  TGI: > 100 µM
[28]
  TGI: > 100 µM
[30]
  TGI: > 100 µM
[31]
  TGI: > 100 µM
[32]
  TGI: > 100 µM
[33]
  TGI: > 100 µM
[57]
  TGI: > 100 µM
[34]
  TGI: > 100 µM
[58]
  TGI: > 100 µM
[35]
  TGI: > 100 µM
[36]
  TGI: > 100 µM
[37]
  TGI: > 100 µM
[38]
  TGI: > 100 µM
[39]
  TGI: > 100 µM
[40]
  TGI: > 100 µM
[41]
  TGI: > 100 µM
[42]
  TGI: 68 µM
[43]
  TGI: > 100 µM
[44]
  TGI: > 100 µM
[45]
  TGI: > 100 µM
[46]
  TGI: > 100 µM
[47]
  TGI: > 100 µM
[48]
  TGI: > 100 µM
[49]
  TGI: > 100 µM
[50]
  TGI: > 100 µM
[51]
  TGI: > 100 µM
[52]
  TGI: > 100 µM
[53]
  TGI: > 100 µM
[54]
  TGI: > 100 µM

## Cn1c(=O)c2[nH]c(CCCCc3nc4c([nH]3)c(=O)n(C)c(=S)n4C)nc2n(C)c1=S
[1]
  TGI: > 100 µM
[2]
  TGI: > 100 µM
[3]
  TGI: > 100 µM
[4]
  TGI: > 100 µM
[5]
  TGI: > 100 µM
[6]
  TGI: > 100 µM
[7]
  TGI: > 100 µM
[8]
  TGI: > 100 µM
[10]
  TGI: > 100 µM
[11]
  TGI: > 100 µM
[12]
  TGI: > 100 µM
[13]
  TGI: > 100 µM
[14]
  TGI: > 100 µM
[15]
  TGI: > 100 µM
[16]
  TGI: > 100 µM
[55]
  TGI: > 100 µM
[17]
  TGI: > 100 µM
[18]
  TGI: > 100 µM
[20]
  TGI: > 100 µM
[21]
  TGI: > 100 µM
[22]
  TGI: > 100 µM
[23]
  TGI: > 100 µM
[24]
  TGI: > 100 µM
[25]
  TGI: > 100 µM
[26]
  TGI: > 100 µM
[56]
  TGI: > 100 µM
[27]
  TGI: > 100 µM
[28]
  TGI: > 100 µM
[29]
  TGI: > 100 µM
[30]
  TGI: > 100 µM
[31]
  TGI: > 100 µM
[32]
  TGI: > 100 µM
[59]
  TGI: > 100 µM
[33]
  TGI: > 100 µM
[57]
  TGI: > 100 µM
[34]
  TGI: > 100 µM
[58]
  TGI: > 100 µM
[35]
  TGI: > 100 µM
[36]
  TGI: > 100 µM
[38]
  TGI: > 100 µM
[39]
  TGI: > 100 µM
[40]
  TGI: > 100 µM
[41]
  TGI: > 100 µM
[42]
  TGI: > 100 µM
[43]
  TGI: > 100 µM
[44]
  TGI: > 100 µM
[45]
  TGI: > 100 µM
[46]
  TGI: > 100 µM
[47]
  TGI: > 100 µM
[48]
  TGI: > 100 µM
[49]
  TGI: > 100 µM
[50]
  TGI: > 100 µM
[51]
  TGI: > 100 µM
[52]
  TGI: > 100 µM
[53]
  TGI: > 100 µM
[54]
  TGI: 53.1 µM

## O=c1ccnc(SCc2ccc(Cl)cc2)[nH]1
[1]
  TGI: > 100 µM
[2]
  TGI: > 100 µM
[3]
  TGI: > 100 µM
[4]
  TGI: > 100 µM
[5]
  TGI: > 100 µM
[6]
  TGI: > 100 µM
[7]
  TGI: > 100 µM
[8]
  TGI: > 100 µM
[9]
  TGI: 66.2 µM
[10]
  TGI: > 100 µM
[11]
  TGI: > 100 µM
[12]
  TGI: > 100 µM
[13]
  TGI: > 100 µM
[14]
  TGI: > 100 µM
[15]
  TGI: > 100 µM
[16]
  TGI: > 100 µM
[55]
  TGI: > 100 µM
[17]
  TGI: > 100 µM
[18]
  TGI: > 100 µM
[20]
  TGI: > 100 µM
[21]
  TGI: > 100 µM
[22]
  TGI: > 100 µM
[23]
  TGI: > 100 µM
[24]
  TGI: > 100 µM
[26]
  TGI: > 100 µM
[56]
  TGI: > 100 µM
[27]
  TGI: > 100 µM
[28]
  TGI: > 100 µM
[29]
  TGI: > 100 µM
[30]
  TGI: > 100 µM
[31]
  TGI: > 100 µM
[32]
  TGI: > 100 µM
[59]
  TGI: > 100 µM
[33]
  TGI: > 100 µM
[57]
  TGI: > 100 µM
[34]
  TGI: > 100 µM
[58]
  TGI: > 100 µM
[35]
  TGI: > 100 µM
[36]
  TGI: > 100 µM
[37]
  TGI: > 100 µM
[38]
  TGI: > 100 µM
[39]
  TGI: > 100 µM
[40]
  TGI: > 100 µM
[41]
  TGI: > 100 µM
[42]
  TGI: > 100 µM
[43]
  TGI: > 100 µM
[44]
  TGI: > 100 µM
[45]
  TGI: > 100 µM
[46]
  TGI: > 100 µM
[47]
  TGI: > 100 µM
[48]
  TGI: > 100 µM
[49]
  TGI: > 100 µM
[50]
  TGI: > 100 µM
[51]
  TGI: > 100 µM
[52]
  TGI: > 100 µM
[53]
  TGI: > 100 µM
[54]
  TGI: > 100 µM
